Measurements as given in patent publication US7109218B2, “Substituted 2-thio-3,5-dicyano-4-phenyl-6-aminopyridines and the use of the same” (Bayer HealthCare AG, priority 2001, dated 2006).
Read-outs that look alike come from different tables or passages of the source.

How the values were obtained:
heart = experiment: Cardiovascular effect: heart rate of isolated rat heart in Langerdorff apparatus; conditions: isolated perfused rat heart
Method: After the thorax has been opened, the heart is rapidly removed from anaesthetized rats and introduced into a conventional Langerdorff apparatus. The coronary arteries are perfused at constant volume (10 ml/min), and the resulting perfusion pressure is recorded by way of an appropriate pressure sensor. In this set-up, a decrease in the perfusion pressure corresponds to a relaxation of the coronary arteries. At the same time, the pressure which the heart develops during each contraction is measured by way of a balloon, which has been introduced into the left ventricle, and a second pressure sensor. The frequency of the heart, which is beating in isolation, is calculated from the number of contractions per time unit.
In this experimental set-up, the following values were obtained for the reduction in heart rate (the stated percentage refers to the reduction of the heart rate in per cent at the concentration in question): […]

adenosine A1 receptor = biological target: T1, adenosine A1 receptor (Homo sapiens, UniProt P30542); experiment: Adenosine agonism indirectly by gene expression (luciferase, cAMP-dependent promoter) in transfected CHO cells, A1; type: cell-based; conditions: 1 μmolar forskolin = 100%, agonists give less than 100%
T1 construct: expressed in transfected cells; host or cells: CHO (Chinese Hamster Ovary)
T1 sequence (P30542 1-326): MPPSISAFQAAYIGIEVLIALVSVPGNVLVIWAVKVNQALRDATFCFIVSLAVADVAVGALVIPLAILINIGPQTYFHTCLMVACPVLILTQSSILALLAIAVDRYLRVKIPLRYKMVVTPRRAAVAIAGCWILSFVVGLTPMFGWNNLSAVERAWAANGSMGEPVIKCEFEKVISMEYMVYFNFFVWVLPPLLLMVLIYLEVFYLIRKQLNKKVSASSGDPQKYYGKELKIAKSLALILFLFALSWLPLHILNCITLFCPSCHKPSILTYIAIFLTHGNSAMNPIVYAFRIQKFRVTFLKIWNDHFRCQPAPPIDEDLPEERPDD
Text: (§1) Cells of the CHO (Chinese Hamster Ovary) permanent cell line are transfected stably with the cDNA for the adenosine receptor subtypes A1, A2a and A2b. The adenosine A1 receptors are coupled to the adenylate cyclase by way of Gi proteins, while the adenosine A2a and A2b receptors are coupled by way of Gs proteins. In correspondence with this, the formation of cAMP in the cell is inhibited or stimulated, respectively. After that, expression of the luciferase is modulated by way of a cAMP-dependent promoter. The luciferase test is optimized, with the aim of high sensitivity and reproducibility, low variance and good suitability for implementation on a robot system, by varying several test parameters, such as cell density, duration of the growth phase and the test incubation, forskolin concentration and medium composition. The following test protocol is used for pharmacologically characterizing cells and for the robot-assisted substance test screening.
(§2) The stock cultures are grown, at 37° C. and under 5% CO2, in DMEM/F12 medium containing 10% FCS (foetal calf serum) and in each case split 1:10 after 2–3 days. The test cultures are seeded in 384-well plates at the rate of from 1 000 to 3 000 cells per well and grown at 37° C. for approx. 48 hours. The medium is then replaced with a physiological sodium chloride solution (130 mM sodium chloride, 5 mM potassium chloride, 2 mM calcium chloride, 20 mM HEPES, 1 mM magnesium chloride 6H2O, 5 mM NaHCO3, pH 7.4). The substances, which are dissolved in DMSO, are diluted 1:10 three times with this physiological sodium chloride solution and pipetted into the test cultures (maximum final concentration of DMSO in the test mixture: 0.5%). In this way, final substance concentrations of, for example, from 5 μM to 5 nM are obtained. 10 minutes later, forskolin is added to the A1 cells and all the cultures are subsequently incubated at 37° C. for four hours. After that, 35 μl of a solution which is composed of 50% lysis reagent (30 mM disodium hydrogenphosphate, 10% glycerol, 3% TritonX100, 25 mM TrisHCl, 2 mM dithiothreitol (DTT), pH 7.8) and 50% luciferase substrate solution (2.5 mM ATP, 0.5 mM luciferin, 0.1 mM coenzyme A, 10 mM tricine, 1.35 mM magnesium sulphate, 15 mM DTT, pH 7.8) are added to the test cultures, the plates are shaken for approx. 1 minute and the luciferase activity is measured using a camera system.
(§3) The table gives the % values of the corresponding reference stimulus. The measured values for the A2a and A2b receptors are values in per cent of the maximum stimulation achieved by NECA; the measured values for the A1 receptor are values in per cent following direct prestimulation of the adenylate cyclase with 1 μmolar forskolin (corresponds to the 100% value).

[1] = Pharmacokinetic investigation, oral bioavailability in mice; type: in vivo; conditions: plasma, Mouse, read-out: Bioavailability following oral administration
Method: (§4) Pharmacokinetic data were determined after administering various substances i.v. or p.o. as solutions to mice, rats and dogs. For this, blood samples were collected up to 24 hours after administration. The concentrations of the unaltered substance were determined by bioanalytical methods (HPLC or HPLC-MS) in the plasma samples which were obtained from the blood samples. Pharmacokinetic parameters were subsequently ascertained from the plasma concentration time courses which had been obtained in this way. The following Table 2 gives the bioavailability in the different species.

adenosine A2a receptor = biological target: T2, adenosine A2a receptor (Homo sapiens, UniProt P29274); experiment: Adenosine agonism indirectly by gene expression (luciferase, cAMP-dependent promoter) in transfected CHO cells, A2a; type: cell-based; conditions: read-out: Stimulation of adenosine A2a receptor (% of the maximum stimulation achieved by NECA)
T2 construct: expressed in transfected cells; host or cells: CHO (Chinese Hamster Ovary)
T2 sequence (P29274 whole entry): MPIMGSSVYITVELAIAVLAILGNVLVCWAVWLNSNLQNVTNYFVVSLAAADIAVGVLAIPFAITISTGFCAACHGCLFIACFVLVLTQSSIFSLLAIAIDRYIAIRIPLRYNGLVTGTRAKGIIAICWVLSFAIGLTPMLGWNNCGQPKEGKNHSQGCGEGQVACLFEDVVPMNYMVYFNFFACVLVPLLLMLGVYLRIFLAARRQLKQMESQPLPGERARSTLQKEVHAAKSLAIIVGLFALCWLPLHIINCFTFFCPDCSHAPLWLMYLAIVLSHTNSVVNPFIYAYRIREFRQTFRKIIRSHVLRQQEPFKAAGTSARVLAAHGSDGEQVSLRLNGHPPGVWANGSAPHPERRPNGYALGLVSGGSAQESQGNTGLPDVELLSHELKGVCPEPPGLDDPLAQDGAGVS
Text: as §1, §2, §3

adenosine A2b receptor = biological target: T3, adenosine A2b receptor (Homo sapiens, UniProt P29275); experiment: Adenosine agonism indirectly by gene expression (luciferase, cAMP-dependent promoter) in transfected CHO cells, A2b; type: cell-based; conditions: read-out: Stimulation of adenosine A2b receptor (% of the maximum stimulation achieved by NECA)
T3 construct: expressed in transfected cells; host or cells: CHO (Chinese Hamster Ovary)
T3 sequence (P29275 1-332): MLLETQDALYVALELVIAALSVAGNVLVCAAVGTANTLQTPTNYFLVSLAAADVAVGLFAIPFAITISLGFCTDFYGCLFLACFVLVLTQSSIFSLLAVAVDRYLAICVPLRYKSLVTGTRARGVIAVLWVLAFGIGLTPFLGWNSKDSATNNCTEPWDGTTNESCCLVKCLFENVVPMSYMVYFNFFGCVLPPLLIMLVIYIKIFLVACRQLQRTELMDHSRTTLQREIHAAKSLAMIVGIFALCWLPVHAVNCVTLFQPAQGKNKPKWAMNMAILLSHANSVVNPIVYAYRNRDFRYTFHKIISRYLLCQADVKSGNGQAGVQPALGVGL
Text: as §1, §2, §3

[2] = Pharmacokinetic investigation, oral bioavailability in rats; type: in vivo; conditions: plasma, Rat, at 3 mg/kg p.o., read-out: Bioavailability following oral administration
Method: as §4

[3] = Pharmacokinetic investigation, oral bioavailability in dogs; type: in vivo; conditions: plasma, Dog, read-out: Bioavailability following oral administration
Method: as §4

[4] = at a concentration of 10^−6 g/ml
[5] = at a concentration of 10^−7 g/ml

COCCOc1ccc(-c2c(C#N)c(N)nc(SCc3cccnc3)c2C#N)cc1 [Example 1, 2-Amino-4-[4-(2-methoxyethoxy)phenyl]-6-[(3-pyridinylmethyl)sulphanyl]pyridine-3,5-dicarbonitrile]
Reduction of the heart rate in percent (heart; [4]): 17.5%
Reduction of the heart rate in percent (heart; [5]): 15.0%
Stimulation of adenosine A1 receptor (luciferase activity in % of forskolin prestimulation) (adenosine A1 receptor; 0.3 nmol): 56%
Stimulation of adenosine A1 receptor (luciferase activity in % of forskolin prestimulation) (adenosine A1 receptor; 1 nmol): 11%
Stimulation of adenosine A1 receptor (luciferase activity in % of forskolin prestimulation) (adenosine A1 receptor; 10 nmol): 4%
bioavailability ([1]; at 1 mg/kg p.o.): 31.5%
Emax (adenosine A2a receptor; 0.3 nmol): -1%
Emax (adenosine A2a receptor; 1 nmol): 2%
Emax (adenosine A2a receptor; 10 nmol): -2%
Emax (adenosine A2b receptor; 0.3 nmol): 2%
Emax (adenosine A2b receptor; 1 nmol): 6%
Emax (adenosine A2b receptor; 10 nmol): 8%
bioavailability [2]: 5%
bioavailability ([3]; at 3 mg/kg p.o.): 32.6%

N#Cc1c(N)nc(SCc2csc(-c3ccc(Cl)cc3)n2)c(C#N)c1-c1ccc(OCCO)cc1 [Example 6, 2-Amino-6-({[2-(4-chlorophenyl)-1,3-thiazol-4-yl]methyl}sulphanyl)-4-[4-(2-hydroxyethoxy)phenyl]pyridine-3,5-dicarbonitrile]
Reduction of the heart rate in percent (heart; [4]): 20.0%
Reduction of the heart rate in percent (heart; [5]): 15.5%
Stimulation of adenosine A1 receptor (luciferase activity in % of forskolin prestimulation) (adenosine A1 receptor; 0.3 nmol): 45%
Stimulation of adenosine A1 receptor (luciferase activity in % of forskolin prestimulation) (adenosine A1 receptor; 1 nmol): 25%
Stimulation of adenosine A1 receptor (luciferase activity in % of forskolin prestimulation) (adenosine A1 receptor; 10 nmol): 7%
bioavailability ([1]; at 3 mg/kg p.o.): 41.3%
Emax (adenosine A2a receptor; 0.3 nmol): 0%
Emax (adenosine A2a receptor; 1 nmol): 4%
Emax (adenosine A2a receptor; 10 nmol): 2%
Emax (adenosine A2b receptor; 0.3 nmol): 0%
Emax (adenosine A2b receptor; 1 nmol): 3%
Emax (adenosine A2b receptor; 10 nmol): 29%
bioavailability [2]: 42.3%
bioavailability ([3]; at 1 mg/kg p.o.): 28.5%
